Common to all, as to format: in vivo
Holding throughout (details): Dicamba 560 g ae/ha alone; Induce 0.25% v/v

One experiment deals with AMATA, ABUTH, CHEAL. As to the kind of experiment: Greenhouse trial: dicamba with copolymer CP1, mean over the three weed species.
Experiment [1] relates to waterhemp (Amaranthus tuberculatus, AMATA). As to the kind of experiment: Greenhouse trial: dicamba (Engenia) with copolymer CP1, postemergence weed control.
The subject of experiment [2] is velvetleaf (Abutilon theophrasti, ABUTH). The description is as above.
Experiment [3] deals with common lambsquarters (Chenopodium album; OCHEAL). Described as above.

Take `COc1c(Cl)ccc(Cl)c1C(=O)O` [Dicamba, dicamba]: the “% Control (21 Days after Treatment) Mean” value with AMATA, ABUTH, CHEAL worked out at 74%. For the same compound, the “% Control (21 Days after Treatment) AMATA” value in experiment [1] was 83%. Also, the “% Control (21 Days after Treatment) ABUTH” value in experiment [2] is 53%. Also, in experiment [3], the “% Control (21 Days after Treatment) CHEAL” value is reported as 86%.

Source of the values: patent US20250064062A1, “METHOD FOR INCREASING THE EFFICACY OF A HERBICIDE” (BASF SE, priority 2021, published 2025).
